Test results taken from ChEMBL document CHEMBL5338818, “Discovery of the First Potent, Selective, and In Vivo Efficacious Polo-like Kinase 4 Proteolysis Targeting Chimera Degrader for the Treatment of TRIM37-Amplified Breast Cancer” (J Med Chem, 2023).

Key:
MCF7 = test: Antiproliferative activity against human MCF7 cells incubated for 5 days by CCK-8 assay; settings: MCF7, 120 h
[1] = molecular target: T1, Serine/threonine-protein kinase PLK4 (Homo sapiens, UniProt O00444); test: Inhibition of PLK4 (unknown origin) incubated for 1 hr in presence of kinase tracer 236 by FRET assay
T1 sequence (O00444 whole entry): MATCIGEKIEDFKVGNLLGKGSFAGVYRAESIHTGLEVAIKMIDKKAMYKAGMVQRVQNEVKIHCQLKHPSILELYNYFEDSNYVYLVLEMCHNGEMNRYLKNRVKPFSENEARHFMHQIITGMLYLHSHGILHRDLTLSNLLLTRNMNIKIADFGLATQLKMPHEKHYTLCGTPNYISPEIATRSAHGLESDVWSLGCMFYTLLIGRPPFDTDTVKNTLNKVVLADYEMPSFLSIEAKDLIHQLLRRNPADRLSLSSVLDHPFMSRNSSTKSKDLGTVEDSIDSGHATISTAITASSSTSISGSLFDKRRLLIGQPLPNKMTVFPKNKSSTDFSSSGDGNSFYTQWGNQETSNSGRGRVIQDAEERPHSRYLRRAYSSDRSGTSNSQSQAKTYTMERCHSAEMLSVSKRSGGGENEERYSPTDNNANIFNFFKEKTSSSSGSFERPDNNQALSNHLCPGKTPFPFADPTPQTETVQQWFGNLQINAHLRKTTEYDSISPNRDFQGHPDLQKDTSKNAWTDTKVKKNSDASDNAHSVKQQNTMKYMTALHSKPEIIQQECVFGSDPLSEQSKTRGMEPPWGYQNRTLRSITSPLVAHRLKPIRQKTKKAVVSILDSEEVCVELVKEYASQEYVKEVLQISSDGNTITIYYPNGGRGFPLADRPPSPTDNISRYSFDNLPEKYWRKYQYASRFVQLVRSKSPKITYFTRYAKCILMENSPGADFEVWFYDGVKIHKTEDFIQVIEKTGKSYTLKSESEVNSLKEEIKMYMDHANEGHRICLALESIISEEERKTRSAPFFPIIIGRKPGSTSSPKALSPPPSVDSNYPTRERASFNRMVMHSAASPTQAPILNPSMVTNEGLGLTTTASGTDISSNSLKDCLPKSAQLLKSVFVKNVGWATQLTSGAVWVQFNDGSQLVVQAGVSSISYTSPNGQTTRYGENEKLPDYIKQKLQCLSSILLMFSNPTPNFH

[2] = molecular target: T2, Protein cereblon/Serine/threonine-protein kinase PLK4 (Homo sapiens, UniProt O00444+Q96SW2); test: Protac activity at CRBN/PLK4 in human MCF7 cells at 0.1 uM incubated for 48 hrs by Western blot analysis; assay type: cell-based
T2 sequence (Q96SW2 whole entry, looked up, one chain of several): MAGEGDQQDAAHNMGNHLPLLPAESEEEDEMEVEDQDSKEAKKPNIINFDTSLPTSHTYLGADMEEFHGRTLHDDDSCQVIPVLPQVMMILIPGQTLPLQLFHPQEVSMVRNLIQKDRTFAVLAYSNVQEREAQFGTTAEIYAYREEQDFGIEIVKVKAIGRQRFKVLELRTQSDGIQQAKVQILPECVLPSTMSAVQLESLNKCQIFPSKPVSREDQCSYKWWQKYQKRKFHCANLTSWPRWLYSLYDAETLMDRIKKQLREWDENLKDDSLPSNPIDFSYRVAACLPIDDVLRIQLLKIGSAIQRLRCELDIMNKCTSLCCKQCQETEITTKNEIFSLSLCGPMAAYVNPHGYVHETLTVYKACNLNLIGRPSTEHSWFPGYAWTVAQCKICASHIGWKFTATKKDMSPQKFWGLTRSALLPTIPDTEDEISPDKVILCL

[3] = molecular target: T2, Protein cereblon/Serine/threonine-protein kinase PLK4; test: Protac activity at CRBN/PLK4 in human MCF7 cells at 1 uM incubated for 48 hrs by Western blot analysis; assay type: cell-based
[4] = molecular target: T2, Protein cereblon/Serine/threonine-protein kinase PLK4; test: Protac activity at CRBN/PLK4 in human MCF7 cells at 10 uM incubated for 48 hrs by Western blot analysis; assay type: cell-based

Cc1cc(Nc2nc(NCc3ccc(F)cc3F)nc3c2cnn3C2CCN(C(=O)CCCCOc3ccc4c(c3)C(=O)N(C3CCC(=O)NC3=O)C4=O)CC2)n[nH]1 (stereo unspecified)
IC50 (MCF7): 260 nM
IC50 [1]: 2.6 nM
Activity [2]: 44.1%
Activity [3]: 56.8%
Activity [4]: 63.6%

Cc1cc(Nc2nc(NCc3ccc(F)cc3F)nc3c2cnn3C2CCNCC2)n[nH]1
IC50 (MCF7): 650 nM

Cc1cc(Nc2nc(NCc3ccc(F)cc3F)nc3c2cnn3C2CCN(C(=O)C3CN(c4ccc5c(c4)C(=O)N(C4CCC(=O)NC4=O)C5=O)C3)CC2)n[nH]1 (stereo unspecified)
IC50 (MCF7): 250 nM
IC50 [1]: 18.9 nM
Activity [2]: 46.3%
Activity [3]: 52.2%
Activity [4]: 73.5%

Cc1cc(Nc2nc(NCc3ccc(F)cc3F)nc3c2cnn3C2CCN(C(=O)CC3CCN(c4ccc5c(c4)C(=O)N(C4CCC(=O)NC4=O)C5=O)CC3)CC2)n[nH]1 (stereo unspecified)
IC50 (MCF7): 2460 nM
IC50 [1]: 19.1 nM
Activity [2]: 46.2%
Activity [3]: 51%

Cc1cc(Nc2nc(NCc3ccc(F)cc3F)nc3c2cnn3C2CCN(C(=O)CCCCCCCCCCCCCCCCCOc3ccc4c(c3)C(=O)N(C3CCC(=O)NC3=O)C4=O)CC2)n[nH]1 (stereo unspecified)
IC50 [1]: 19.6 nM
Activity [2]: 20.2%
Activity [3]: 46.8%
Activity [4]: 58.1%

Cc1cc(Nc2nc(NCc3ccc(F)cc3F)nc3c2cnn3C2CCN(C(=O)c3ccc(C4CCN(c5ccc6c(c5)C(=O)N(C5CCC(=O)NC5=O)C6=O)CC4)cc3)CC2)n[nH]1 (stereo unspecified)
IC50 (MCF7): 2500 nM
IC50 [1]: 82.7 nM
Activity [2]: 50.5%
Activity [3]: 61.4%
Activity [4]: 69.9%

Cc1cc(Nc2nc(NCc3ccc(F)cc3F)nc3c2cnn3C2CCN(C(=O)COCCOCCOc3ccc4c(c3)C(=O)N(C3CCC(=O)NC3=O)C4=O)CC2)n[nH]1 (stereo unspecified)
IC50 [1]: 9.4 nM
Activity [2]: 24.6%
Activity [3]: 30.3%
Activity [4]: 38.5%

Cc1cc(Nc2nc(NCc3ccc(F)cc3F)nc3c2cnn3C2CCN(C(=O)C3CCN(c4ccc5c(c4)C(=O)N(C4CCC(=O)NC4=O)C5=O)C3)CC2)n[nH]1 (stereo unspecified)
IC50 (MCF7): 260 nM
IC50 [1]: 5.5 nM
Activity [2]: 36.7%
Activity [3]: 56.1%
Activity [4]: 66.8%

Cc1cc(Nc2nc(NCc3ccc(F)cc3F)nc3c2cnn3C2CCN(C(=O)COCCOc3ccc4c(c3)C(=O)N(C3CCC(=O)NC3=O)C4=O)CC2)n[nH]1 (stereo unspecified)
IC50 [1]: 1.9 nM
Activity [2]: 2.13%
Activity [3]: 5.34%
Activity [4]: 28.3%

Cc1cc(Nc2nc(NCc3ccc(F)cc3F)nc3c2cnn3C2CCN(C(=O)CCCCCCCCCOc3ccc4c(c3)C(=O)N(C3CCC(=O)NC3=O)C4=O)CC2)n[nH]1 (stereo unspecified)
IC50 [1]: 1080 nM
Activity [2]: 2.81%
Activity [3]: 103%
Activity [4]: 23.6%

Cc1cc(Nc2nc(NCc3ccc(F)cc3F)nc3c2cnn3C2CCN(Cc3ccc(C4CCN(c5ccc6c(c5)C(=O)N(C5CCC(=O)NC5=O)C6=O)CC4)cc3)CC2)n[nH]1 (stereo unspecified)
IC50 [1]: 106 nM
Activity [2]: 1.05%
Activity [3]: 3.11%
Activity [4]: 7.32%

Cc1cc(Nc2nc(NCc3ccc(F)cc3F)nc3c2cnn3C2CCN(C(=O)CCCCCCCCCCCCCCCOc3ccc4c(c3)C(=O)N(C3CCC(=O)NC3=O)C4=O)CC2)n[nH]1 (stereo unspecified)
IC50 [1]: 121 nM
Activity [2]: 24.1%
Activity [3]: 37.8%
Activity [4]: 43.5%

Cc1cc(Nc2nc(NCc3ccc(F)cc3F)nc3c2cnn3C2CCN(CC3CCN(c4ccc5c(c4)C(=O)N(C4CCC(=O)NC4=O)C5=O)CC3)CC2)n[nH]1 (stereo unspecified)
IC50 [1]: 3.1 nM
Activity [2]: 2.16%
Activity [3]: 8.64%
Activity [4]: 19.2%

Cc1cc(Nc2nc(NCc3ccc(F)cc3F)nc3c2cnn3C2CCN(C(=O)CC3CCN(c4ccc5c(c4)C(=O)N(C4CCC(=O)NC4=O)C5=O)C3)CC2)n[nH]1 (stereo unspecified)
IC50 [1]: 8.1 nM
Activity [2]: 39.2%
Activity [3]: 48.9%

Cc1cc(Nc2nc(NCc3ccc(F)cc3F)nc3c2cnn3C2CCN(CC3CCN(c4ccc5c(c4)C(=O)N(C4CCC(=O)NC4=O)C5=O)C3)CC2)n[nH]1 (stereo unspecified)
IC50 [1]: 13.6 nM
Activity [2]: 3.54%
Activity [3]: 8.91%
Activity [4]: 26.1%

Cc1cc(Nc2nc(NCc3ccc(F)cc3F)nc3c2cnn3C2CCN(C(=O)CC3CN(c4ccc5c(c4)C(=O)N(C4CCC(=O)NC4=O)C5=O)C3)CC2)n[nH]1 (stereo unspecified)
IC50 (MCF7): 510 nM
IC50 [1]: 12.9 nM
Activity [2]: 47.7%
Activity [3]: 70.4%

Cc1cc(Nc2nc(NCc3ccc(F)cc3F)nc3c2cnn3C2CCN(C(=O)COc3ccc4c(c3)C(=O)N(C3CCC(=O)NC3=O)C4=O)CC2)n[nH]1 (stereo unspecified)
IC50 [1]: 5.6 nM
Activity [2]: 25.3%
Activity [3]: 28.5%
Activity [4]: 43.9%

Cc1cc(Nc2nc(NCc3ccc(F)cc3F)nc3c2cnn3C2CCN(C(=O)CCCCCOc3ccc4c(c3)C(=O)N(C3CCC(=O)NC3=O)C4=O)CC2)n[nH]1 (stereo unspecified)
IC50 [1]: 5.5 nM
Activity [2]: 31.3%
Activity [3]: 46.7%
Activity [4]: 57.7%

Cc1cc(Nc2nc(NCc3ccc(F)cc3F)nc3c2cnn3C2CCN(C(=O)CCCCCCCCCCCOc3ccc4c(c3)C(=O)N(C3CCC(=O)NC3=O)C4=O)CC2)n[nH]1 (stereo unspecified)
IC50 [1]: 531 nM
Activity [2]: 4.29%
Activity [3]: 13.2%
Activity [4]: 21.7%

Cc1cc(Nc2nc(NCc3ccc(F)cc3F)nc3c2cnn3C2CCN(C(=O)CCCCCCCCCCCCCOc3ccc4c(c3)C(=O)N(C3CCC(=O)NC3=O)C4=O)CC2)n[nH]1 (stereo unspecified)
IC50 [1]: 154 nM
Activity [2]: 11.6%
Activity [3]: 22.8%
Activity [4]: 35.9%

Cc1cc(Nc2nc(NCc3ccc(F)cc3F)nc3c2cnn3C2CCN(C(=O)C3CC4(C3)CN(c3ccc5c(c3)C(=O)N(C3CCC(=O)NC3=O)C5=O)C4)CC2)n[nH]1 (stereo unspecified)
IC50 [1]: 75.2 nM
Activity [2]: 0.28%
Activity [3]: 2.39%
Activity [4]: 4.01%

Cc1cc(Nc2nc(NCc3ccc(F)cc3F)nc3c2cnn3C2CCN(C(=O)CCOCCOc3ccc4c(c3)C(=O)N(C3CCC(=O)NC3=O)C4=O)CC2)n[nH]1 (stereo unspecified)
IC50 [1]: 3.6 nM
Activity [2]: 5.68%
Activity [3]: 13.4%
Activity [4]: 19.7%

Cc1cc(Nc2nc(NCc3ccc(F)cc3F)nc3c2cnn3C2CCN(CC3CC4(C3)CN(c3ccc5c(c3)C(=O)N(C3CCC(=O)NC3=O)C5=O)C4)CC2)n[nH]1 (stereo unspecified)
IC50 [1]: 42.3 nM
Activity [2]: 4.12%
Activity [3]: 6.07%

Cc1cc(Nc2nc(NCc3ccc(F)cc3F)nc3c2cnn3C2CCN(C(=O)Cc3ccc(N4CCN(c5ccc6c(c5)C(=O)N(C5CCC(=O)NC5=O)C6=O)CC4)cc3)CC2)n[nH]1 (stereo unspecified)
IC50 (MCF7): 6980 nM
IC50 [1]: 216 nM
Activity [2]: 40.1%
Activity [3]: 57.6%

Cc1cc(Nc2nc(NCc3ccc(F)cc3F)nc3c2cnn3C2CCN(C(=O)CCOCCOCCCOc3ccc4c(c3)C(=O)N(C3CCC(=O)NC3=O)C4=O)CC2)n[nH]1 (stereo unspecified)
IC50 [1]: 37.9 nM
Activity [2]: 29.1%
Activity [3]: 46.4%
Activity [4]: 52.2%

Cc1cc(Nc2nc(NCc3ccc(F)cc3F)nc3c2cnn3C2CCN(C(=O)CC3CC4(C3)CN(c3ccc5c(c3)C(=O)N(C3CCC(=O)NC3=O)C5=O)C4)CC2)n[nH]1 (stereo unspecified)
IC50 [1]: 61.1 nM
Activity [2]: 1.84%
Activity [3]: 5.49%
Activity [4]: 24.3%

Cc1cc(Nc2nc(NCc3ccc(F)cc3F)nc3c2cnn3C2CCN(CC3CN(c4ccc5c(c4)C(=O)N(C4CCC(=O)NC4=O)C5=O)C3)CC2)n[nH]1 (stereo unspecified)
IC50 [1]: 10.1 nM
Activity [2]: 2.33%
Activity [3]: 31.1%
Activity [4]: 42.2%

Cc1cc(Nc2nc(NCc3ccc(F)cc3F)nc3c2cnn3C2CCN(C(=O)CCCCCCCOc3ccc4c(c3)C(=O)N(C3CCC(=O)NC3=O)C4=O)CC2)n[nH]1 (stereo unspecified)
IC50 [1]: 42.2 nM
Activity [2]: 30.2%
Activity [3]: 38.9%
Activity [4]: 50.3%
